Experimental data taken from the NIST ThermoML archive (doi:10.1021/je034177v).
Numbers after ± are expanded uncertainties.

Key:
[1] = molar heat capacity at constant pressure; settings: 101 kPa, Liquid, Small sample (50 mg) DSC
[2] = 101 kPa, Liquid; for speed of sound: Pulse-echo method; for mass density: Vibrating tube method
[3] = molar heat capacity at constant pressure; xn = mol fraction of the nth substance listed; settings: 101 kPa, Liquid, Small sample (50 mg) DSC, x2 = 0
[4] = xn = mol fraction of the nth substance listed; settings: 101 kPa, Liquid, x2 = 0; for speed of sound: Pulse-echo method; for mass density: Vibrating tube method

ClCCCCCCl [1,5-dichloropentane]
molar heat capacity at constant pressure ([1]; 283.15 K): 209.65 ± 3.2 J/K/mol | molar heat capacity at constant pressure ([1]; 288.15 K): 210.73 ± 3.3 J/K/mol | molar heat capacity at constant pressure ([1]; 293.15 K): 211.89 ± 3.3 J/K/mol | molar heat capacity at constant pressure ([1]; 298.15 K): 212.94 ± 3.3 J/K/mol | molar heat capacity at constant pressure ([1]; 303.15 K): 214.06 ± 3.3 J/K/mol | molar heat capacity at constant pressure ([1]; 308.15 K): 215.21 ± 3.3 J/K/mol | molar heat capacity at constant pressure ([1]; 313.15 K): 216.38 ± 3.4 J/K/mol | molar heat capacity at constant pressure ([1]; 318.15 K): 217.56 ± 3.4 J/K/mol | molar heat capacity at constant pressure ([1]; 323.15 K): 218.76 ± 3.4 J/K/mol | speed of sound ([2]; 278.15 K): 1376.6 ± 1.1 m/s | mass density ([2]; 278.15 K): 1115.28 ± 0.52 kg/m3 | speed of sound ([2]; 283.15 K): 1358.9 ± 1.1 m/s | mass density ([2]; 283.15 K): 1110.26 ± 0.52 kg/m3 | speed of sound ([2]; 288.15 K): 1341 ± 1.1 m/s | mass density ([2]; 288.15 K): 1105.2 ± 0.52 kg/m3 | speed of sound ([2]; 293.15 K): 1323.2 ± 1.1 m/s | mass density ([2]; 293.15 K): 1100.16 ± 0.51 kg/m3 | speed of sound ([2]; 298.15 K): 1305.4 ± 1.1 m/s | mass density ([2]; 298.15 K): 1095.11 ± 0.51 kg/m3 | speed of sound ([2]; 303.15 K): 1287.9 ± 1.1 m/s | mass density ([2]; 303.15 K): 1090.07 ± 0.51 kg/m3 | speed of sound ([2]; 308.15 K): 1270.3 ± 1.1 m/s | mass density ([2]; 308.15 K): 1085.02 ± 0.51 kg/m3 | speed of sound ([2]; 313.15 K): 1253 ± 1.1 m/s | mass density ([2]; 313.15 K): 1079.97 ± 0.5 kg/m3 | speed of sound ([2]; 318.15 K): 1235.8 ± 1.1 m/s | mass density ([2]; 318.15 K): 1074.95 ± 0.5 kg/m3 | speed of sound ([2]; 323.15 K): 1218.7 ± 1.1 m/s | mass density ([2]; 323.15 K): 1069.89 ± 0.5 kg/m3 | speed of sound ([2]; 328.15 K): 1201.6 ± 1.1 m/s | mass density ([2]; 328.15 K): 1064.93 ± 0.5 kg/m3

ClCCCCCCCl [1,6-dichlorohexane]
molar heat capacity at constant pressure ([1]; 283.15 K): 236.59 ± 3.7 J/K/mol | molar heat capacity at constant pressure ([1]; 288.15 K): 237.9 ± 3.7 J/K/mol | molar heat capacity at constant pressure ([1]; 293.15 K): 239.26 ± 3.7 J/K/mol | molar heat capacity at constant pressure ([1]; 298.15 K): 240.6 ± 3.7 J/K/mol | molar heat capacity at constant pressure ([1]; 303.15 K): 241.94 ± 3.8 J/K/mol | molar heat capacity at constant pressure ([1]; 308.15 K): 243.37 ± 3.8 J/K/mol | molar heat capacity at constant pressure ([1]; 313.15 K): 244.81 ± 3.8 J/K/mol | molar heat capacity at constant pressure ([1]; 318.15 K): 246.28 ± 3.8 J/K/mol | molar heat capacity at constant pressure ([1]; 323.15 K): 247.76 ± 3.8 J/K/mol | speed of sound ([2]; 278.15 K): 1387.4 ± 0.85 m/s | mass density ([2]; 278.15 K): 1082.7 ± 0.3 kg/m3 | speed of sound ([2]; 283.15 K): 1370 ± 0.85 m/s | mass density ([2]; 283.15 K): 1077.97 ± 0.29 kg/m3 | speed of sound ([2]; 288.15 K): 1352.3 ± 0.84 m/s | mass density ([2]; 288.15 K): 1073.22 ± 0.29 kg/m3 | speed of sound ([2]; 293.15 K): 1334.8 ± 0.84 m/s | mass density ([2]; 293.15 K): 1068.47 ± 0.29 kg/m3 | speed of sound ([2]; 298.15 K): 1317.3 ± 0.83 m/s | mass density ([2]; 298.15 K): 1063.74 ± 0.29 kg/m3 | speed of sound ([2]; 303.15 K): 1299.9 ± 0.83 m/s | mass density ([2]; 303.15 K): 1059 ± 0.29 kg/m3 | speed of sound ([2]; 308.15 K): 1282.7 ± 0.82 m/s | mass density ([2]; 308.15 K): 1054.25 ± 0.29 kg/m3 | speed of sound ([2]; 313.15 K): 1265.7 ± 0.82 m/s | mass density ([2]; 313.15 K): 1049.5 ± 0.29 kg/m3 | speed of sound ([2]; 318.15 K): 1248.7 ± 0.81 m/s | mass density ([2]; 318.15 K): 1044.78 ± 0.28 kg/m3 | speed of sound ([2]; 323.15 K): 1231.8 ± 0.81 m/s | mass density ([2]; 323.15 K): 1040.03 ± 0.28 kg/m3 | speed of sound ([2]; 328.15 K): 1215.1 ± 0.8 m/s | mass density ([2]; 328.15 K): 1035.37 ± 0.28 kg/m3

CCCCCCCCCCCC [dodecane]
molar heat capacity at constant pressure ([1]; 283.15 K): 368.47 ± 5.7 J/K/mol | molar heat capacity at constant pressure ([1]; 288.15 K): 370.48 ± 5.7 J/K/mol | molar heat capacity at constant pressure ([1]; 293.15 K): 372.74 ± 5.8 J/K/mol | molar heat capacity at constant pressure ([1]; 298.15 K): 375.04 ± 5.8 J/K/mol | molar heat capacity at constant pressure ([1]; 303.15 K): 377.43 ± 5.8 J/K/mol | molar heat capacity at constant pressure ([1]; 308.15 K): 380.02 ± 5.9 J/K/mol | molar heat capacity at constant pressure ([1]; 313.15 K): 382.73 ± 5.9 J/K/mol | molar heat capacity at constant pressure ([1]; 318.15 K): 385.48 ± 6 J/K/mol | molar heat capacity at constant pressure ([1]; 323.15 K): 388.29 ± 6 J/K/mol | speed of sound ([2]; 278.15 K): 1357 ± 1.1 m/s | mass density ([2]; 278.15 K): 759.56 ± 0.34 kg/m3 | speed of sound ([2]; 283.15 K): 1337.4 ± 1.1 m/s | mass density ([2]; 283.15 K): 755.96 ± 0.34 kg/m3 | speed of sound ([2]; 288.15 K): 1317.6 ± 1 m/s | mass density ([2]; 288.15 K): 752.36 ± 0.34 kg/m3 | speed of sound ([2]; 293.15 K): 1298 ± 1 m/s | mass density ([2]; 293.15 K): 748.74 ± 0.34 kg/m3 | speed of sound ([2]; 298.15 K): 1278.5 ± 1 m/s | mass density ([2]; 298.15 K): 745.14 ± 0.34 kg/m3 | speed of sound ([2]; 303.15 K): 1259.2 ± 1 m/s | mass density ([2]; 303.15 K): 741.52 ± 0.34 kg/m3 | speed of sound ([2]; 308.15 K): 1240 ± 1 m/s | mass density ([2]; 308.15 K): 737.88 ± 0.34 kg/m3 | speed of sound ([2]; 313.15 K): 1221 ± 1 m/s | mass density ([2]; 313.15 K): 734.24 ± 0.34 kg/m3 | speed of sound ([2]; 318.15 K): 1202.3 ± 1 m/s | mass density ([2]; 318.15 K): 730.6 ± 0.34 kg/m3 | speed of sound ([2]; 323.15 K): 1183.6 ± 1 m/s | mass density ([2]; 323.15 K): 726.95 ± 0.33 kg/m3 | speed of sound ([2]; 328.15 K): 1165.1 ± 1 m/s | mass density ([2]; 328.15 K): 723.29 ± 0.33 kg/m3

CCCCCCCCCCCC [dodecane] + ClCCCCCCCl
molar heat capacity at constant pressure ([3]; 283.15 K): 368.47 ± 5.7 J/K/mol | molar heat capacity at constant pressure ([3]; 288.15 K): 370.48 ± 5.7 J/K/mol | molar heat capacity at constant pressure ([3]; 293.15 K): 372.74 ± 5.8 J/K/mol | molar heat capacity at constant pressure ([3]; 298.15 K): 375.04 ± 5.8 J/K/mol | molar heat capacity at constant pressure ([3]; 303.15 K): 377.43 ± 5.8 J/K/mol | molar heat capacity at constant pressure ([3]; 308.15 K): 380.02 ± 5.9 J/K/mol | molar heat capacity at constant pressure ([3]; 313.15 K): 382.73 ± 5.9 J/K/mol | molar heat capacity at constant pressure ([3]; 318.15 K): 385.48 ± 6 J/K/mol | molar heat capacity at constant pressure ([3]; 323.15 K): 388.29 ± 6 J/K/mol | speed of sound ([4]; 278.15 K): 1357 ± 1.1 m/s | mass density ([4]; 278.15 K): 759.56 ± 0.34 kg/m3 | speed of sound ([4]; 283.15 K): 1337.4 ± 1.1 m/s | mass density ([4]; 283.15 K): 755.96 ± 0.34 kg/m3 | speed of sound ([4]; 288.15 K): 1317.6 ± 1 m/s | mass density ([4]; 288.15 K): 752.36 ± 0.34 kg/m3 | speed of sound ([4]; 293.15 K): 1298 ± 1 m/s | mass density ([4]; 293.15 K): 748.74 ± 0.34 kg/m3 | speed of sound ([4]; 298.15 K): 1278.5 ± 1 m/s | mass density ([4]; 298.15 K): 745.14 ± 0.34 kg/m3 | speed of sound ([4]; 303.15 K): 1259.2 ± 1 m/s | mass density ([4]; 303.15 K): 741.52 ± 0.34 kg/m3 | speed of sound ([4]; 308.15 K): 1240 ± 1 m/s | mass density ([4]; 308.15 K): 737.88 ± 0.34 kg/m3 | speed of sound ([4]; 313.15 K): 1221 ± 1 m/s | mass density ([4]; 313.15 K): 734.24 ± 0.34 kg/m3 | speed of sound ([4]; 318.15 K): 1202.3 ± 1 m/s | mass density ([4]; 318.15 K): 730.6 ± 0.34 kg/m3 | speed of sound ([4]; 323.15 K): 1183.6 ± 1 m/s | mass density ([4]; 323.15 K): 726.95 ± 0.33 kg/m3 | speed of sound ([4]; 328.15 K): 1165.1 ± 1 m/s | mass density ([4]; 328.15 K): 723.29 ± 0.33 kg/m3

CCCCCCCCCCCC [dodecane] + ClCCCCCCl
molar heat capacity at constant pressure ([3]; 283.15 K): 368.47 ± 5.7 J/K/mol | molar heat capacity at constant pressure ([3]; 288.15 K): 370.48 ± 5.7 J/K/mol | molar heat capacity at constant pressure ([3]; 293.15 K): 372.74 ± 5.8 J/K/mol | molar heat capacity at constant pressure ([3]; 298.15 K): 375.04 ± 5.8 J/K/mol | molar heat capacity at constant pressure ([3]; 303.15 K): 377.43 ± 5.8 J/K/mol | molar heat capacity at constant pressure ([3]; 308.15 K): 380.02 ± 5.9 J/K/mol | molar heat capacity at constant pressure ([3]; 313.15 K): 382.73 ± 5.9 J/K/mol | molar heat capacity at constant pressure ([3]; 318.15 K): 385.48 ± 6 J/K/mol | molar heat capacity at constant pressure ([3]; 323.15 K): 388.29 ± 6 J/K/mol | speed of sound ([4]; 278.15 K): 1357 ± 1.1 m/s | mass density ([4]; 278.15 K): 759.56 ± 0.34 kg/m3 | speed of sound ([4]; 283.15 K): 1337.4 ± 1.1 m/s | mass density ([4]; 283.15 K): 755.96 ± 0.34 kg/m3 | speed of sound ([4]; 288.15 K): 1317.6 ± 1 m/s | mass density ([4]; 288.15 K): 752.36 ± 0.34 kg/m3 | speed of sound ([4]; 293.15 K): 1298 ± 1 m/s | mass density ([4]; 293.15 K): 748.74 ± 0.34 kg/m3 | speed of sound ([4]; 298.15 K): 1278.5 ± 1 m/s | mass density ([4]; 298.15 K): 745.14 ± 0.34 kg/m3 | speed of sound ([4]; 303.15 K): 1259.2 ± 1 m/s | mass density ([4]; 303.15 K): 741.52 ± 0.34 kg/m3 | speed of sound ([4]; 308.15 K): 1240 ± 1 m/s | mass density ([4]; 308.15 K): 737.88 ± 0.34 kg/m3 | speed of sound ([4]; 313.15 K): 1221 ± 1 m/s | mass density ([4]; 313.15 K): 734.24 ± 0.34 kg/m3 | speed of sound ([4]; 318.15 K): 1202.3 ± 1 m/s | mass density ([4]; 318.15 K): 730.6 ± 0.34 kg/m3 | speed of sound ([4]; 323.15 K): 1183.6 ± 1 m/s | mass density ([4]; 323.15 K): 726.95 ± 0.33 kg/m3 | speed of sound ([4]; 328.15 K): 1165.1 ± 1 m/s | mass density ([4]; 328.15 K): 723.29 ± 0.33 kg/m3
